{
  "source": "ChEMBL document CHEMBL1201862",
  "about": "“PubChem BioAssay data set” (2004)",
  "key": {"[1]": {"biological_target": "T1, Kappa-type opioid receptor (Homo sapiens, UniProt P41145)", "T1 sequence (P41145 whole entry)": "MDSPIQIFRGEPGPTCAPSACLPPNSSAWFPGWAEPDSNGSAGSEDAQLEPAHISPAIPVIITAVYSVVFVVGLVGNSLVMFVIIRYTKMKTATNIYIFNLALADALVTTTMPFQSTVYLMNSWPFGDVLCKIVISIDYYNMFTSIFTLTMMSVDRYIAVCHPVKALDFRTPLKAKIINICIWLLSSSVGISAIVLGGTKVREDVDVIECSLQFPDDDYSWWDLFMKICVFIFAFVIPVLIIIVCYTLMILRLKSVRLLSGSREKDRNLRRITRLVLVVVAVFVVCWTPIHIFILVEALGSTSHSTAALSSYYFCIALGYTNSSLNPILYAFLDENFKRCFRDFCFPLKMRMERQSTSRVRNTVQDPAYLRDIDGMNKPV", "test": "SAR analysis of small molecule agonists of the kappa opioid receptor via a luminescent beta-arrestin assay - Set 3. [Related pubchem assays (depositor defined):AID1777, AID1785, AID1786, AID1966, AID2133, AID2136, AID2284, AID2500]", "assay_type": "functional"}, "[2]": {"biological_target": "T1, Kappa-type opioid receptor", "test": "kappa opioid receptor activation by imaging – image-based, set 3, SAR follow-up (AID 488833)", "assay_type": "functional"}, "[3]": {"biological_target": "Delta-type opioid receptor (Homo sapiens, UniProt P41143)", "sequence (P41143 whole entry)": "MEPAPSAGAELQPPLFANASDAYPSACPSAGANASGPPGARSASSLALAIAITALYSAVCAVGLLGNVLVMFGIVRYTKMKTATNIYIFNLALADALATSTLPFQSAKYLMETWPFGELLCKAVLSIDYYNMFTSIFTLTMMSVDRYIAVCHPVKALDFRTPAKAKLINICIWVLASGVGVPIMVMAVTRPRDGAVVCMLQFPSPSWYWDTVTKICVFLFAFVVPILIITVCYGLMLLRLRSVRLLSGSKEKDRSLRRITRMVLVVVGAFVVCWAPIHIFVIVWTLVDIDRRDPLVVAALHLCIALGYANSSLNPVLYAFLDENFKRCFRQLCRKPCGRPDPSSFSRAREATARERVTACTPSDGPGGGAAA", "test": "SAR Analysis of Agonists of the DOR Receptor using an Image-Based Assay - Set 3. [Related pubchem assays (depositor defined):AID1777, AID1786]", "assay_type": "functional"}, "Mu-type opioid receptor": {"biological_target": "Mu-type opioid receptor (Homo sapiens, UniProt P35372)", "sequence (P35372 whole entry)": "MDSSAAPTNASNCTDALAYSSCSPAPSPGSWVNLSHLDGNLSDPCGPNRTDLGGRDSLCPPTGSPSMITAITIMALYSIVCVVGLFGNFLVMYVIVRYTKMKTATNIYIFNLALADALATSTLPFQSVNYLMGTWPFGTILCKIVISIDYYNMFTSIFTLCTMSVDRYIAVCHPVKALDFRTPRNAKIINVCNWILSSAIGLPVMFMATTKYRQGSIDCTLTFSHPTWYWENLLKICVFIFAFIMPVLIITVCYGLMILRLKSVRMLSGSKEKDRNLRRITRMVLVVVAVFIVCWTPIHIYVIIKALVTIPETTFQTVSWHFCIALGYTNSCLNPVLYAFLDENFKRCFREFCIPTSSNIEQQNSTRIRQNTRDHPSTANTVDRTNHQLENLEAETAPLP", "test": "SAR Analysis of Agonists of the MOR Receptor using an Image-Based Assay - Set 3. [Related pubchem assays (depositor defined):AID1777, AID1785, AID1786, AID1966, AID2133, AID2136, AID2284, AID2285, AID2352]", "assay_type": "functional"}, "[4]": {"biological_target": "Voltage-dependent T-type calcium channel subunit alpha-1H (Homo sapiens, UniProt O95180)", "test": "human CACNA1H calcium influx blockade – cell-based, synthetic library set 1, calcium flux (AID 493022)", "assay_type": "functional"}, "[5]": {"biological_target": "Glyceraldehyde-3-phosphate dehydrogenase (Homo sapiens, UniProt P04406)", "sequence (P04406 whole entry)": "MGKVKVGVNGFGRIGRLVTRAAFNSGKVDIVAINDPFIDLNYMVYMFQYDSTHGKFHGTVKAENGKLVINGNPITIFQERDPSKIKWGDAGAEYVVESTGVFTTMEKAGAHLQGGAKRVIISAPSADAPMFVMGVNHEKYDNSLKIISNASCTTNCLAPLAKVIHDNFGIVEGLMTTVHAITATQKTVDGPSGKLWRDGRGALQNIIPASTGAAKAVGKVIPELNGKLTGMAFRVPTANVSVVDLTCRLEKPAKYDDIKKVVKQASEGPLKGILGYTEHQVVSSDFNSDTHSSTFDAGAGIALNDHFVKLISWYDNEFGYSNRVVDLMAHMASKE"}, "[6]": {"biological_target": "T2, Alkaline phosphatase, tissue-nonspecific isozyme (Homo sapiens, UniProt P05186)", "T2 sequence (P05186 whole entry)": "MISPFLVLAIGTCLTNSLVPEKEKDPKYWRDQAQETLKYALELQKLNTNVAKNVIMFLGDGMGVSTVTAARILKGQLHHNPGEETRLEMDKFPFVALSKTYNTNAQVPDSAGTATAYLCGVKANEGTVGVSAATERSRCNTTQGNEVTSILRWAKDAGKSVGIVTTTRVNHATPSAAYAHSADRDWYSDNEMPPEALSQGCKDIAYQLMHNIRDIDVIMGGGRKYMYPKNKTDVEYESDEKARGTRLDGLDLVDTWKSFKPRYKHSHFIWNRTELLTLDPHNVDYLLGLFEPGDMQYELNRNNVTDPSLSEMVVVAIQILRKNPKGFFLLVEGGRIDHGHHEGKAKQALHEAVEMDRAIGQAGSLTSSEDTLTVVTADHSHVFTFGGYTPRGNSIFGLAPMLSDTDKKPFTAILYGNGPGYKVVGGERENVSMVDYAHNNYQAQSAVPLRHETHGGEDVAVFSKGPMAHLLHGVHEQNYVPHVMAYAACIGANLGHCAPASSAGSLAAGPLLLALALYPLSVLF", "test": "potency against alkaline phosphatase TNAP – biochemical, luminescent, dose response, SAR follow-up (AID 1056)"}, "[7]": {"biological_target": "Alkaline phosphatase, placental type (Homo sapiens, UniProt P05187)", "test": "human placental alkaline phosphatase inhibition – biochemical, luminescence, confirmation (AID 1512)", "assay_type": "functional"}, "[8]": {"biological_target": "T3, Voltage-gated N-type calcium channel alpha-1B subunit/Amyloid beta A4 precursor protein-binding family A member 1 (Homo sapiens, UniProt Q00975+Q02410)", "T3 sequence (Q00975 whole entry)": "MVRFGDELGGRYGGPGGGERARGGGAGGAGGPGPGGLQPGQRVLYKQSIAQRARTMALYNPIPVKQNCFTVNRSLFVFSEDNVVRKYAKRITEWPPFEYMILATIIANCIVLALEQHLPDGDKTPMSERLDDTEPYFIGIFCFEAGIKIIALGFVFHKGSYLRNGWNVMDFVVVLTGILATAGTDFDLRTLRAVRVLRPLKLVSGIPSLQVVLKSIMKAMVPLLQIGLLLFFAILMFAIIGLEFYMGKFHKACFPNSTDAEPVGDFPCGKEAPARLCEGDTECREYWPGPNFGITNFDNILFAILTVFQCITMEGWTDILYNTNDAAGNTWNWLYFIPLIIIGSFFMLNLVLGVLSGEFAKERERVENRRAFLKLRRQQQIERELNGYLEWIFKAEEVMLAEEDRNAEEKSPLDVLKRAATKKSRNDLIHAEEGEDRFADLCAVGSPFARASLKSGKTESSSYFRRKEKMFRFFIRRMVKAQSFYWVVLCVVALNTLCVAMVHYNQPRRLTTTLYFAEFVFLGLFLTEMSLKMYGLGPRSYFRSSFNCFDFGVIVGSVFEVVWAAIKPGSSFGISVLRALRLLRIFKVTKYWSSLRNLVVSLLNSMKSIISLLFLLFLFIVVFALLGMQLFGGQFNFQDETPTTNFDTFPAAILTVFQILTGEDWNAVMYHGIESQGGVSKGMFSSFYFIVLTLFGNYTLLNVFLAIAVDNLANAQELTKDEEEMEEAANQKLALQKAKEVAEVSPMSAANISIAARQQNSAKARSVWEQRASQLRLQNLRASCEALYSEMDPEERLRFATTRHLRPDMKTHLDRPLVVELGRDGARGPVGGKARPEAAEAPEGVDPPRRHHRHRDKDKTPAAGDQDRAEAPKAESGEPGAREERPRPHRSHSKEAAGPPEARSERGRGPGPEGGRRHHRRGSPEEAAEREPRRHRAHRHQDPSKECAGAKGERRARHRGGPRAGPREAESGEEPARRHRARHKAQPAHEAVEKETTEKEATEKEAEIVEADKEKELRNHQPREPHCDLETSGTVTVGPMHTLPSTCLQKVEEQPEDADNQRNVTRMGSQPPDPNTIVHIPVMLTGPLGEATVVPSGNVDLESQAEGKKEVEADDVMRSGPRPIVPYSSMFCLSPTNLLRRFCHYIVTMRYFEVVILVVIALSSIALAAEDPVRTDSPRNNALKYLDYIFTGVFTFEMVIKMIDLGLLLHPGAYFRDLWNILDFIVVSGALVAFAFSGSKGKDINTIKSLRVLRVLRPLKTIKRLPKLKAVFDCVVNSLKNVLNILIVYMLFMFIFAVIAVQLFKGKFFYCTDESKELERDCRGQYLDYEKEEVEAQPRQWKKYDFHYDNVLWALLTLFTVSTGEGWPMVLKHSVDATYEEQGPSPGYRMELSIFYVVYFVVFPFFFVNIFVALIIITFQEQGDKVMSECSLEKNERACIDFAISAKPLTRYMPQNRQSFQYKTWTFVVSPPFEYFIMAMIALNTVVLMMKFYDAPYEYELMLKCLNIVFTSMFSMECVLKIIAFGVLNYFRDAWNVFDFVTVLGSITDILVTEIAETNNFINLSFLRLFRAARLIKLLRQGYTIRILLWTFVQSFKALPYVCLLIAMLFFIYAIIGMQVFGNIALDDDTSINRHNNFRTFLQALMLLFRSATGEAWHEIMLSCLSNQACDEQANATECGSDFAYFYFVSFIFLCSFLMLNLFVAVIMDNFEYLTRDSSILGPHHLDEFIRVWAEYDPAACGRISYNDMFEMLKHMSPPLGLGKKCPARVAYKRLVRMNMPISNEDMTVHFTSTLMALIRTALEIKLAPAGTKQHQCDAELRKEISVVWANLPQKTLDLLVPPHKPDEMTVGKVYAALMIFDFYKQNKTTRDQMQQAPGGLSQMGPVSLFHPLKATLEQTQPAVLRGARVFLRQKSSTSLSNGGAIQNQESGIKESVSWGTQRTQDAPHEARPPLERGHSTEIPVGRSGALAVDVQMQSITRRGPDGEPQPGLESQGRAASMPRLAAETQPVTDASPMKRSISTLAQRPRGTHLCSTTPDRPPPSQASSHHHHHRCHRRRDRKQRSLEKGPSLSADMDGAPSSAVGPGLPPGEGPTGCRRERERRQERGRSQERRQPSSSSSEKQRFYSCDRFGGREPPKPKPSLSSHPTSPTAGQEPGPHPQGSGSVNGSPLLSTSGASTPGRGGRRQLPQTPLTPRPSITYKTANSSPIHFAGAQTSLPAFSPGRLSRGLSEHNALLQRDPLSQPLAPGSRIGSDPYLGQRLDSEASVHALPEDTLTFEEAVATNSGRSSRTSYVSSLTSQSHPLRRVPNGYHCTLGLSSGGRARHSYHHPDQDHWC", "T3 sequence (Q02410 whole entry)": "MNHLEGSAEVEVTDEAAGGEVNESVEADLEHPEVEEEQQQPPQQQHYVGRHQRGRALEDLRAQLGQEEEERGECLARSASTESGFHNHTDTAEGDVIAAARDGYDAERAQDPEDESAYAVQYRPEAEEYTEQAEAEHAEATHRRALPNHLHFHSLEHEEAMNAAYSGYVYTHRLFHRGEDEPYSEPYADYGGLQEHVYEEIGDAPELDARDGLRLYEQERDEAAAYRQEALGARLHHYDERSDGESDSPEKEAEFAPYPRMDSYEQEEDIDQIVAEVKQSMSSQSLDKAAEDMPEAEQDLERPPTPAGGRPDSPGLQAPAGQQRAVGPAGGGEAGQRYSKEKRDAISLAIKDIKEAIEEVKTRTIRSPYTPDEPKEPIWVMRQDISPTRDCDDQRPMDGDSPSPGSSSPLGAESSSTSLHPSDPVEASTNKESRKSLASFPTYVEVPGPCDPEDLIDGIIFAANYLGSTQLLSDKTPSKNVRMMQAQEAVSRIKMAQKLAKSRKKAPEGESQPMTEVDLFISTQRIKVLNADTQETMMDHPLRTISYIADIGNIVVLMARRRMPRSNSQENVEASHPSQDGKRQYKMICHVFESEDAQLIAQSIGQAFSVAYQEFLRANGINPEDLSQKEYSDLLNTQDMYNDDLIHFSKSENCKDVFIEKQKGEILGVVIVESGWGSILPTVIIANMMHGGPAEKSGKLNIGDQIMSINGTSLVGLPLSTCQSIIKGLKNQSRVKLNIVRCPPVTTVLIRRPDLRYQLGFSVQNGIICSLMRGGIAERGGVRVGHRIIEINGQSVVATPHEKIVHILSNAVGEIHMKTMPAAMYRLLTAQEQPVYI", "assay_type": "protein assay"}, "Beta Lactamase": {"biological_target": "Beta Lactamase (Pseudomonas aeruginosa, UniProt Q932Y6)", "sequence (Q932Y6 whole entry)": "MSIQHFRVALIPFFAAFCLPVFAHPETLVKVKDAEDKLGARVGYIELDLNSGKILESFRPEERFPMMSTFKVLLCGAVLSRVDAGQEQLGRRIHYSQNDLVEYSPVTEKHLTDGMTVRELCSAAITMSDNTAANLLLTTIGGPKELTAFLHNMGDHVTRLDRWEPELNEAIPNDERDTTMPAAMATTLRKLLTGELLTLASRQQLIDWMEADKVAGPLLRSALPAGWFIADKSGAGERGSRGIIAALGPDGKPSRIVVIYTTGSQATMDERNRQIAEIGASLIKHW", "test": "BLA reporter interference, concentration series – BLA reporter cells, FRET fluorescence, artefact control for NOD2-RIPK2 interaction inhibitor project, dose response (AID 651552)", "assay_type": "functional, cell-based"}, "Large T antigen": {"biological_target": "Large T antigen (Simian virus 40, UniProt P03070)", "assay_type": "functional, Betapolyomavirus macacae"}, "[9]": {"biological_target": "T3, Voltage-gated N-type calcium channel alpha-1B subunit/Amyloid beta A4 precursor protein-binding family A member 1", "assay_type": "protein assay", "remark": "listed apart in the source"}, "[10]": {"biological_target": "Glucose-6-phosphate 1-dehydrogenase (Homo sapiens, UniProt P11413)", "test": "inhibition of Homo sapiens G6PD, dose series – biochemical, fluorescence, selectivity assay for P. falciparum G6PD inhibitor project, dose response (AID 504792)", "assay_type": "functional"}, "[11]": {"test": "Fluorescence-based cell-based high throughput dose response assay for inhibitors of the interaction of nucleotide-binding oligomerization domain containing 2 (NOD2) and the receptor-interacting serine-threonine kinase 2 (RIPK2).", "assay_type": "functional", "details": "Homo sapiens"}, "Protein RecA [12]": {"biological_target": "T4, Protein RecA (Mycobacterium tuberculosis, UniProt P9WHJ3)", "T4 sequence (P9WHJ3 whole entry)": "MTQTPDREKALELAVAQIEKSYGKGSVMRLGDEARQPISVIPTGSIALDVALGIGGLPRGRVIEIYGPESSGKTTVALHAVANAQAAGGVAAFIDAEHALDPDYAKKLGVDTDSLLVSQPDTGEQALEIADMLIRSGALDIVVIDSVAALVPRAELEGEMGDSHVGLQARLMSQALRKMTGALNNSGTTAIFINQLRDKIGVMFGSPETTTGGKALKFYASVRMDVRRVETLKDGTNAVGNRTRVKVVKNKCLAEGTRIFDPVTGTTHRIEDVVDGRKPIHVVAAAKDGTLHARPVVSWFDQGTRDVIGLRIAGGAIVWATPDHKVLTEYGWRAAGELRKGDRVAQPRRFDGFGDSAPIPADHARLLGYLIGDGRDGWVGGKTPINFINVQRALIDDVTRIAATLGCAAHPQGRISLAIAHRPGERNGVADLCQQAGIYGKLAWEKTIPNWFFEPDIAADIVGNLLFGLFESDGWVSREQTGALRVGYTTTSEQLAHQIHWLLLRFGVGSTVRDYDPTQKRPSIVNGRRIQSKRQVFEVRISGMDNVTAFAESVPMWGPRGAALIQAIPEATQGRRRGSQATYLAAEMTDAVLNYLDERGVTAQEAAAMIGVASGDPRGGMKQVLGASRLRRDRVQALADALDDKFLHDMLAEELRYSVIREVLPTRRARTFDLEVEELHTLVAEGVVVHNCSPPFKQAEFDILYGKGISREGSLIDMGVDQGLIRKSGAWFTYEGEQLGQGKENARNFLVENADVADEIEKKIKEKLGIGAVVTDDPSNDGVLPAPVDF", "test": "GFP-RecA MOA-DTT Measured in Biochemical System Using Plate Reader - 2047-05_Inhibitor_Dose_DryPowder_Activity. [Related pubchem assays (depositor defined):AID2223]", "design": "species or system Mycobacterium tuberculosis H37Rv"}, "Protein RecA [13]": {"biological_target": "T4, Protein RecA", "test": "RecA Intein Measured in Biochemical System Using Plate Reader - 2047-02_Inhibitor_Dose_DryPowder_Activity. [Related pubchem assays (depositor defined):AID2223]", "design": "species or system Mycobacterium tuberculosis H37Rv"}, "[14]": {"biological_target": "T5, Replicative DNA helicase DnaB (Mycobacterium tuberculosis, UniProt P9WMR3)", "T5 sequence (P9WMR3 whole entry)": "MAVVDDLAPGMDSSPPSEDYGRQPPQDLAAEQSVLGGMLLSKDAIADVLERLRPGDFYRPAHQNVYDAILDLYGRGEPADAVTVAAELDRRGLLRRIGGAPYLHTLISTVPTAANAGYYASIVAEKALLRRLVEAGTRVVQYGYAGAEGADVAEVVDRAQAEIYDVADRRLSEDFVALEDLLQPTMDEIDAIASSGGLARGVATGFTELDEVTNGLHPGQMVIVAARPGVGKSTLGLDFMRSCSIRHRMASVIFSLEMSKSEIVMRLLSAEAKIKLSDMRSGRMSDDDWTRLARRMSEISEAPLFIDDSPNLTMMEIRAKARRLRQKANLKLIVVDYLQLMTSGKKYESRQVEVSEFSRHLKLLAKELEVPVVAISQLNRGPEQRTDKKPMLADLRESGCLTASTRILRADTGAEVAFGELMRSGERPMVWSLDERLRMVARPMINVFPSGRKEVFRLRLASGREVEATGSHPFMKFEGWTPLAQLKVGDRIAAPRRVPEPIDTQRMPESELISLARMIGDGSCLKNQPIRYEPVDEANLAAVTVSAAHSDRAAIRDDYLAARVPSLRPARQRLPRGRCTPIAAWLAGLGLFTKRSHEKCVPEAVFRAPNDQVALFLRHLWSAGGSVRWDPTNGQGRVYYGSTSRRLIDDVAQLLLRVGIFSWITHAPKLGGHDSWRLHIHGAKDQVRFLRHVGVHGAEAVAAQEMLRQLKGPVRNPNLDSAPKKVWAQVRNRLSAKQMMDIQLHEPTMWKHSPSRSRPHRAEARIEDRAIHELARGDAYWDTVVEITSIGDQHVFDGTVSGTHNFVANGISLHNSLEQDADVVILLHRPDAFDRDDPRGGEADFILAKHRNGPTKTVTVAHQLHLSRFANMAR", "test": "DnaB Intein secondary assay Measured in Biochemical System Using Plate Reader - 2047-04_Inhibitor_Dose_DryPowder_Activity. [Related pubchem assays (depositor defined):AID2223]"}},
  "note": "The source made the active and inactive calls.",
  "data": [
    {"smiles": "N#Cc1ccc(CSc2nnc(-c3ccccn3)n2Cc2ccco2)cc1", "values": [
      {"measurement": "EC50", "setting": "[1]", "result": "6.79 µM (active)"},
      {"measurement": "EC50", "setting": "[2]", "result": "19.3 µM (inactive)"},
      {"measurement": "EC50", "setting": "[3]", "result": "> 64 µM (inactive)"},
      {"measurement": "EC50", "setting": "Mu-type opioid receptor", "result": "> 32 µM (inactive)"}
    ]},
    {"smiles": "O=C(COc1ccc(F)c(Cl)c1)Nc1nnc(-c2ccc3c(c2)CCCC3)o1", "values": [
      {"measurement": "EC50", "setting": "[4]", "result": "2.4 µM (active)"}
    ]},
    {"smiles": "CC(C)(C)NC(=O)c1cc(-c2cc(F)c(Cl)cc2Cl)n[nH]1", "values": [
      {"measurement": "IC50", "setting": "[5]", "result": "> 100 µM (not active)"},
      {"measurement": "IC50", "setting": "[6]", "result": "1.08 µM (active)"},
      {"measurement": "IC50", "setting": "[7]", "result": "> 100 µM (inactive)"}
    ]},
    {"smiles": "N#C/C(C(=O)Nc1ccc(Cl)cc1)=C(/S)Nc1ccccc1", "values": [
      {"measurement": "IC50", "setting": "[8]", "result": "25.5 µM (active)"},
      {"measurement": "IC50", "setting": "Beta Lactamase", "result": "49.8 µM (inactive)"},
      {"measurement": "IC50", "setting": "Large T antigen", "result": "16.5 µM (active)"},
      {"measurement": "IC50", "setting": "[9]", "result": "13.9 µM (active)"},
      {"measurement": "IC50", "setting": "[10]", "result": "52 µM (inactive)"},
      {"measurement": "IC50", "setting": "[11]", "result": "19.6 µM (inactive)"}
    ]},
    {"smiles": "Cc1oc2c(c1C(=O)NCc1ccccn1)C(=O)c1ccccc1C2=O", "values": [
      {"measurement": "AC50", "setting": "Protein RecA [12]", "result": "9.92 µM (active)"},
      {"measurement": "AC50", "setting": "Protein RecA [13]", "result": "0.074 µM (active)"},
      {"measurement": "AC50", "setting": "[14]", "result": "1.07 µM (active)"}
    ]}
  ]
}
